Consider seven molecules from ChEMBL document CHEMBL5500389, “Discovery of the Selective and Orally Available Galectin-1 Inhibitor GB1908 as a Potential Treatment for Lung Cancer” (J Med Chem, 2024).

The nature of data set [1]: Efflux ratio of apparent permeability across apical to basal side over basal to apical side in human Caco-2 cells at 10 uM incubated for 90 mins by LC-MS/MS analysis. (Caco-2 cells form a polarised layer with tight junctions and transporters.)
The nature of data set [2]: Apparent permeability across apical to basal side in human Caco-2 cells at 10 uM incubated for 90 mins by LC-MS/MS analysis.
Data set [3] is described as follows: Stability in human hepatocytes assessed as hepatic intrinsic clearance at 2 uM measured per million cells for 15 to 120 mins by LC-MS/MS analysis. The settings on record: time 15-120 min, read-out: CLH. The data set is classed as ADME, cell-based, Hepatocyte.
In data set [4] the target is T1, Galectin-1 (Homo sapiens, UniProt P09382). Nature of the data set: Binding affinity to human galectin-1 assessed as dissociation constant by fluorescein probe based fluorescence polarization assay. A general note: In fluorescence polarisation assays a small probe gives low polarisation when free and higher when bound to something large.
T1 sequence (P09382 whole entry): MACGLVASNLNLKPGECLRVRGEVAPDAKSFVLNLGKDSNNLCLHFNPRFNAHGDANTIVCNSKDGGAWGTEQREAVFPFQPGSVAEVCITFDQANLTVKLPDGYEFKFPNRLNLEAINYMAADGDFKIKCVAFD
The next data set can be described thus: physchem. To be noted: octanol/potassium phosphate buffer, pH 7.4.
Data set [5] is described as follows: Stability in mouse hepatocytes assessed as hepatic intrinsic clearance at 2 uM measured per million cells for 15 to 120 mins by LC-MS/MS analysis. In kind it is ADME, cell-based, Hepatocyte. The settings on record: time 15-120 min, read-out: CLH.
Data set [6] has as its target T2, Galectin-1 (Mus musculus, UniProt P16045). Nature of the data set: Binding affinity to mouse galectin-1 assessed as dissociation constant by fluorescein probe based fluorescence polarization assay.
Data set [7] can be described thus: Apparent permeability across basal to apical side in human Caco-2 cells at 10 uM incubated for 90 mins by LC-MS/MS analysis.
In data set [8] the target is Galectin-3 (Homo sapiens, UniProt P17931). Nature of the data set: Binding affinity to human galectin-3 assessed as dissociation constant by competitive fluorescence polarization assay.
Chain of Galectin-3 (Homo sapiens, UniProt P17931) (P17931 whole entry): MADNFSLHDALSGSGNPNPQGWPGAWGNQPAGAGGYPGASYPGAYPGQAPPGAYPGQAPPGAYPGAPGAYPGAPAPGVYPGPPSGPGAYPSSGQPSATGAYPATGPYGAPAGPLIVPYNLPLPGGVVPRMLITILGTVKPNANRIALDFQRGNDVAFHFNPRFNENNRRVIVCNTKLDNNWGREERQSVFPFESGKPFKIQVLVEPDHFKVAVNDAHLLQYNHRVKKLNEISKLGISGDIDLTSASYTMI
The target of data set [9] is T1, Galectin-1. Nature of the data set: Binding affinity to human galectin-1 assessed as dissociation constant by competitive fluorescence polarization assay.
The target of data set [10] is Galectin-3 (Mus musculus, UniProt P16110). Nature of the data set: Binding affinity to mouse galectin-3 assessed as dissociation constant by competitive fluorescence polarization assay.
Chain of Galectin-3 (Mus musculus, UniProt P16110) (P16110 whole entry): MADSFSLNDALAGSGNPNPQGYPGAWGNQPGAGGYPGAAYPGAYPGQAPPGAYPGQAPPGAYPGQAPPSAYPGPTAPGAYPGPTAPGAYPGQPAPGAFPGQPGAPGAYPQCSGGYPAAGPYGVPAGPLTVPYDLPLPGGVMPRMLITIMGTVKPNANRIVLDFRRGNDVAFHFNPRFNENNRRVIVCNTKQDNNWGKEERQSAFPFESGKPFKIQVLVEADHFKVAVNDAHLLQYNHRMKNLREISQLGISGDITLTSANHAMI
In data set [11] the target is T1, Galectin-1. Nature of the data set: Binding affinity to human galectin-1 assessed as dissociation constant by fluorescence polarization assay.
Data set [12] concerns the target T2, Galectin-1. Nature of the data set: Binding affinity to mouse galectin-1 assessed as dissociation constant by competitive fluorescence polarization assay.
A short description of data set [13]: Unbound fraction in human plasma at 1 uM incubated for 5 hrs by equilibrium dialysis method. In kind it is ADME, cell-free. Background: In equilibrium dialysis free small molecules cross a membrane that holds back macromolecules.

T2 sequence (P16045 whole entry): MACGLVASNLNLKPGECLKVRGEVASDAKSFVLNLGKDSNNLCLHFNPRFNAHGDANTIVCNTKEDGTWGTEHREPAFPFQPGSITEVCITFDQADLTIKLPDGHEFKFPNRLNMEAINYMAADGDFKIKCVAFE

Take `CO[C@@H]1[C@@H](n2cc(-c3nccs3)nn2)[C@@H](O)[C@@H](CO)O[C@@H]1Sc1cc(Cl)c(F)c(Cl)c1`: in data set [1], the efflux ratio at 1.5 h, 10 µM amounted to 1.4. The apical-to-basolateral permeability (Papp A→B) at 1.5 h, 10 µM in data set [2] amounted to 20 ×10⁻⁶ cm/s. Besides, the hepatocyte CLint at 2 µM in data set [3] is 4.4 µL/min/1e6 cells; in [5], below 1.5 µL/min/1e6 cells. In addition, the figures for the equilibrium dissociation constant (Kd) on Galectin-1 [4] and on Galectin-1 [6] were 145 nM and 160 nM, respectively. The same molecule showed a logD at 1 h in “physchem” of 3.7. In addition, the Papp B→A at 1.5 h, 10 µM in data set [7] stood at 28 ×10⁻⁶ cm/s.

As for `COc1nc(-c2cn([C@@H]3[C@@H](O)[C@@H](Sc4cc(Cl)c(F)c(Cl)c4)O[C@H](CO)[C@@H]3O)nn2)cs1`, the efflux ratio at 1.5 h, 10 µM in [1] came out at 5. The apparent permeability from apical to basolateral (Papp A→B) at 1.5 h, 10 µM in data set [2] worked out at 12 ×10⁻⁶ cm/s. For the same molecule, the Kd at Galectin-1 [4] was found to be 1580 nM. For the same molecule, in data set [7], the basolateral-to-apical permeability (Papp B→A) at 1.5 h, 10 µM was determined as 61 ×10⁻⁶ cm/s.

As for `CO[C@@H]1[C@@H](n2cc(-c3csc(N)n3)nn2)[C@@H](O)[C@@H](CO)O[C@@H]1Sc1cc(Cl)c(F)c(Cl)c1`, the efflux ratio at 1.5 h, 10 µM in data set [1] worked out at 11. The Papp A→B at 1.5 h, 10 µM in data set [2] worked out at 3.5 ×10⁻⁶ cm/s. Moreover, the hepatocyte CLint at 2 µM in [3] was 4.6 µL/min/1e6 cells; in [5] it was 1.6 µL/min/1e6 cells. Further, the Kd turned out to be 98 nM at Galectin-1 [4] and 91 nM at Galectin-1 [6]. Further, the logD at 1 h in “physchem” was determined as 3. In addition, the Papp B→A at 1.5 h, 10 µM in [7] was determined as 39 ×10⁻⁶ cm/s.

Turning to `OC[C@H]1O[C@@H](S[C@@H]2O[C@H](CO)[C@H](O)[C@H](n3cc(-c4csc(O)n4)nn3)[C@H]2O)[C@H](O)[C@@H](n2cc(-c3cc(F)c(F)c(F)c3)nn2)[C@H]1O`, the figures for the Kd on Galectin-3 [8], on Galectin-1 [9] and on Galectin-3 [10] were 1 nM, 4 nM and 34 nM, respectively.

With `O=C(N[C@H]1[C@@H](O)[C@@H](CO)O[C@@H](S[C@@H]2O[C@H](CO)[C@H](O)[C@H](n3cc(-c4csc(O)n4)nn3)[C@H]2O)[C@@H]1O)c1ccc2c(c1)C(=O)OC21c2ccc(O)cc2Oc2cc(O)ccc21`, the Kd at Galectin-1 [11] worked out at 20 nM; on Galectin-1 [12], 29 nM.

Turning to `CO[C@@H]1[C@@H](n2cc(-c3csc(N)n3)nn2)[C@@H](O)[C@@H](CO)O[C@@H]1Sc1ccc(Cl)c(Cl)c1`, the efflux ratio at 1.5 h, 10 µM in [1] was 10. Moreover, the apical-to-basolateral permeability (Papp A→B) at 1.5 h, 10 µM in data set [2] amounted to 3.8 ×10⁻⁶ cm/s. For the same molecule, the hepatocyte CLint at 2 µM in [3] and in data set [5] was below 1.5 µL/min/1e6 cells each time. Besides, the values for the dissociation constant (Kd) at Galectin-1 [4] and on Galectin-1 [6] were 112 nM and 99 nM, respectively. In addition, in [13], the fraction unbound at 5 h, 1 µM came out at 0.032. The logD at 1 h in the data set “physchem” turned out to be 2.9. The basolateral-to-apical permeability (Papp B→A) at 1.5 h, 10 µM in data set [7] worked out at 38 ×10⁻⁶ cm/s.

As for `OC[C@H]1O[C@H](Sc2cc(Cl)c(F)c(Cl)c2)[C@H](O)[C@@H](n2cc(-c3nccs3)nn2)[C@H]1O`, in data set [1], the efflux ratio at 1.5 h, 10 µM was 2.8.

Usually efflux ratio stands for the permeability from basolateral to apical divided by that in the opposite direction, in the common usage. Usually Papp A→B stands for the apparent permeability from the apical to the basolateral side of a cell layer. In general, Kd refers to a measure of binding affinity in units of concentration. A word on the logD: it is lipophilicity at a set pH, counting ionised and neutral species. Low values mean a more hydrophilic compound, high ones a more lipophilic compound. Usually Papp B→A stands for how fast a substance crosses the layer from the basolateral side. What is called fraction unbound is free concentration divided by total concentration. A low value points to extensive binding.
